Here are results for six molecules from ChEMBL document CHEMBL3871307, “Discovery of Chromane Propionic Acid Analogues as Selective Agonists of GPR120 with in Vivo Activity in Rodents” (ACS Med Chem Lett, 2017).

pEC50: −log10 of the molar value.

One assay has as its target T1, Free fatty acid receptor 4 (Homo sapiens) (UniProt Q5NUL3).
T1 sequence (whole entry): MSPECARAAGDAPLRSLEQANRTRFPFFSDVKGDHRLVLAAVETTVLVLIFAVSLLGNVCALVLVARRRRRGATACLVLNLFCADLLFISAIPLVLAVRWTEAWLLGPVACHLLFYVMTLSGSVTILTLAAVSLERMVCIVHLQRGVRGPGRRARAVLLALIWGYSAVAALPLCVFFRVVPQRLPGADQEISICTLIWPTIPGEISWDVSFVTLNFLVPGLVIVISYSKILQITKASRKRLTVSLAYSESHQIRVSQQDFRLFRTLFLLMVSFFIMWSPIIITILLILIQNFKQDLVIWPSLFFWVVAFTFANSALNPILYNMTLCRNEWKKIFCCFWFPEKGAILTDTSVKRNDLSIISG
The experiment in a line: Agonist activity at human GPR120 short isoform expressed in CHOK1 cells assessed as increase in IP1 accumulation at 10 uM after 60 mins by HTRF assay. The assay is classed as functional, cell-based. The note with it: CHO-K1.
Take `O=C(O)CC[C@H]1CCc2cc(-c3cc(OC4CCC4)ncc3F)ccc2O1`: the Activity is greater than 50%.

Take `CO[C@H]1C[C@H](Oc2cc(F)c(F)c(-c3ccc4c(c3)CC[C@H](CCc3nnn[nH]3)O4)c2)C1`: the Activity worked out at 24%.

On to `COc1cc(OC2CCC2)nc(-c2ccc3c(c2)CC[C@H]([C@@H]2C[C@H]2C(=O)O)O3)c1F`, for which the Activity was greater than 50%.

For `O=C(O)CC[C@H]1CCc2cc(-c3cc(OC(F)(F)F)cc(Cl)c3F)ccc2O1`, the Activity was greater than 50%.

In the case of `COc1cc(OC2CCC2)nc(-c2ccc3c(c2)CC[C@H](CCC(=O)O)O3)c1F`, the Activity was greater than 50%.

As for `COc1cc(O[C@H]2C[C@H](OC)C2)cc(-c2ccc3c(c2)CC[C@H]([C@@H]2C[C@H]2C(=O)O)O3)c1F`, the Activity was greater than 50%.

For the next assay, the target named is T2, Free fatty acid receptor 4 (Homo sapiens, UniProt Q5NUL3).
T2 sequence (Q5NUL3 whole entry): T1 sequence (whole entry)
The experiment in a line: Agonist activity at human GPR120 short isoform expressed in CHOK1 cells assessed as beta-arrestin recruitment after 90 mins by luminescence assay. It is filed as cell-based, CHO-K1.
Details: not given
As for `O=C(O)CC[C@H]1CCc2cc(-c3cc(OC4CCC4)ncc3F)ccc2O1`, the pEC50 (commonly −log10 of the EC50, conventionally taken in molar units) is 6.64.

With `CO[C@H]1C[C@H](Oc2cc(F)c(F)c(-c3ccc4c(c3)CC[C@H](CCc3nnn[nH]3)O4)c2)C1`, the pEC50 was 6.77.

As for `COc1cc(OC2CCC2)nc(-c2ccc3c(c2)CC[C@H]([C@@H]2C[C@H]2C(=O)O)O3)c1F`, the pEC50 was 8.11.

For `O=C(O)CC[C@H]1CCc2cc(-c3cc(OC(F)(F)F)cc(Cl)c3F)ccc2O1`, the pEC50 is 7.77.

Regarding `COc1cc(OC2CCC2)nc(-c2ccc3c(c2)CC[C@H](CCC(=O)O)O3)c1F`, the pEC50 is 8.21.

Consider `COc1cc(O[C@H]2C[C@H](OC)C2)cc(-c2ccc3c(c2)CC[C@H]([C@@H]2C[C@H]2C(=O)O)O3)c1F`, for which the pEC50 is 7.11.

A further assay addresses T2, Free fatty acid receptor 4. The experiment in a line: Agonist activity at human GPR120 short isoform expressed in CHOK1 cells assessed as increase in IP1 accumulation after 60 mins by HTRF assay. It is filed as functional, cell-based, CHO-K1.
Details: not given
On the technique in general: Time-resolved FRET reads energy transfer from a long-lived donor to a nearby acceptor.
Regarding `O=C(O)CC[C@H]1CCc2cc(-c3cc(OC4CCC4)ncc3F)ccc2O1`, the pEC50 was 6.60.

On to `CO[C@H]1C[C@H](Oc2cc(F)c(F)c(-c3ccc4c(c3)CC[C@H](CCc3nnn[nH]3)O4)c2)C1`, for which the pEC50 is 6.62.

On to `COc1cc(OC2CCC2)nc(-c2ccc3c(c2)CC[C@H]([C@@H]2C[C@H]2C(=O)O)O3)c1F`, for which the pEC50 is 7.74.

With `O=C(O)CC[C@H]1CCc2cc(-c3cc(OC(F)(F)F)cc(Cl)c3F)ccc2O1`, the pEC50 is 7.14.

On to `COc1cc(OC2CCC2)nc(-c2ccc3c(c2)CC[C@H](CCC(=O)O)O3)c1F`, for which the pEC50 was 7.82.

`COc1cc(O[C@H]2C[C@H](OC)C2)cc(-c2ccc3c(c2)CC[C@H]([C@@H]2C[C@H]2C(=O)O)O3)c1F`: the pEC50 is 7.26.

The target of another assay is Free fatty acid receptor 1 (Homo sapiens, UniProt O14842). The experiment in a line: Agonist activity at human GPR40 expressed in HEK293 cells assessed as increase in IP1 accumulation after 60 mins by HTRF assay. The assay is classed as functional, cell-based.
Free fatty acid receptor 1, sequence (O14842 whole entry): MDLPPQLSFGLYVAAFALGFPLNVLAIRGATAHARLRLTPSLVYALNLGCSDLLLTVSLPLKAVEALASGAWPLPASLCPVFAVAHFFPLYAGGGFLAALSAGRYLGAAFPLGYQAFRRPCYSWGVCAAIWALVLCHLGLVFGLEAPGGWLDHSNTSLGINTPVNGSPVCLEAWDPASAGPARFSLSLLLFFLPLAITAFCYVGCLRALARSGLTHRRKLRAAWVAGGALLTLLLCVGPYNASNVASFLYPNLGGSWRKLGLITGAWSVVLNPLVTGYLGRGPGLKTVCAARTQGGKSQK
Details: not given
With `O=C(O)CC[C@H]1CCc2cc(-c3cc(OC4CCC4)ncc3F)ccc2O1`, the pEC50 was 5.70.

For the molecule `CO[C@H]1C[C@H](Oc2cc(F)c(F)c(-c3ccc4c(c3)CC[C@H](CCc3nnn[nH]3)O4)c2)C1`, the pEC50 was less than 5.00.

On to `COc1cc(OC2CCC2)nc(-c2ccc3c(c2)CC[C@H]([C@@H]2C[C@H]2C(=O)O)O3)c1F`, for which the pEC50 is less than 5.00.

In the case of `O=C(O)CC[C@H]1CCc2cc(-c3cc(OC(F)(F)F)cc(Cl)c3F)ccc2O1`, the pEC50 is 5.66.

On to `COc1cc(OC2CCC2)nc(-c2ccc3c(c2)CC[C@H](CCC(=O)O)O3)c1F`, for which the pEC50 is less than 5.00.

In the case of `COc1cc(O[C@H]2C[C@H](OC)C2)cc(-c2ccc3c(c2)CC[C@H]([C@@H]2C[C@H]2C(=O)O)O3)c1F`, the pEC50 is less than 5.00.
